# Measurements published in PubChem BioAssay (NCI).
# Several values for one entry are separate records, joined by “and”; a condition that tells them apart may be missing. Identical values can stand only once.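 Compound exposure: 48 hours, 5 concentrations, 96-well plates. GI50: concentration for 50% inhibition of growth. Definition used: TGI = concentration required for complete inhibition of growth.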
# What was measured:
# Experiment in all cases: inhibition of tumour cell growth, NCI panel, 48 h
# A498 renal = tested on: A498 renal
# HOP-92 NSCLC = tested on: HOP-92 NSCLC
# K-562 leukemia = tested on: K-562 leukemia
# MDA-MB-435 = tested on: MDA-MB-435
# HCC-2998 colon = tested on: HCC-2998 colon
# OVCAR-8 ovarian = tested on: OVCAR-8 ovarian
# RPMI-8226 leukemia = tested on: RPMI-8226 leukemia
# IGROV1 ovarian = tested on: IGROV1 ovarian
# HS 578T breast = tested on: HS 578T breast
# UACC-257 melanoma = tested on: UACC-257 melanoma
# UO-31 renal = tested on: UO-31 renal
# SNB-19 CNS = tested on: SNB-19 CNS
# NCI-H23 lung = tested on: NCI-H23 lung
# UACC-62 melanoma = tested on: UACC-62 melanoma
# SW-620 colon = tested on: SW-620 colon
# OVCAR-3 ovarian = tested on: OVCAR-3 ovarian
# NCI-H226 lung = tested on: NCI-H226 lung
# HL-60(TB) leukemia = tested on: HL-60(TB) leukemia
# SNB-75 CNS = tested on: SNB-75 CNS
# LOX IMVI melanoma = tested on: LOX IMVI melanoma
# SK-OV-3 ovarian = tested on: SK-OV-3 ovarian
# 786-0 renal = tested on: 786-0 renal
# MCF7 breast = tested on: MCF7 breast
# TK-10 renal = tested on: TK-10 renal
# SK-MEL-28 melanoma = tested on: SK-MEL-28 melanoma
# T-47D breast = tested on: T-47D breast
# BT-549 breast = tested on: BT-549 breast
# HT29 colon = tested on: HT29 colon
# KM12 colon = tested on: KM12 colon
# SK-MEL-2 melanoma = tested on: SK-MEL-2 melanoma
# SF-268 CNS = tested on: SF-268 CNS
# RXF 393 renal = tested on: RXF 393 renal
# COLO 205 colon = tested on: COLO 205 colon
# M14 melanoma = tested on: M14 melanoma
# NCI-H460 lung = tested on: NCI-H460 lung
# MDA-N = tested on: MDA-N
# HCT-15 colon = tested on: HCT-15 colon
# SF-539 CNS = tested on: SF-539 CNS
# OVCAR-4 ovarian = tested on: OVCAR-4 ovarian
# MDA-MB-231 breast = tested on: MDA-MB-231 breast
# HCT-116 colon = tested on: HCT-116 colon
# SR leukemia = tested on: SR leukemia
# DU-145 prostate = tested on: DU-145 prostate
# SN12C renal = tested on: SN12C renal
# MOLT-4 leukemia = tested on: MOLT-4 leukemia
# OVCAR-5 ovarian = tested on: OVCAR-5 ovarian
# CAKI-1 renal = tested on: CAKI-1 renal
# NCI-H522 lung = tested on: NCI-H522 lung
# PC-3 prostate = tested on: PC-3 prostate
# ACHN renal = tested on: ACHN renal
# NCI/ADR-RES ovarian = tested on: NCI/ADR-RES ovarian
# SF-295 CNS = tested on: SF-295 CNS
# A549 NSCLC = tested on: A549 NSCLC
# CCRF-CEM leukemia = tested on: CCRF-CEM leukemia
# EKVX NSCLC = tested on: EKVX NSCLC
# HOP-62 NSCLC = tested on: HOP-62 NSCLC
# MALME-3M melanoma = tested on: MALME-3M melanoma
# SK-MEL-5 melanoma = tested on: SK-MEL-5 melanoma
# U251 CNS = tested on: U251 CNS
compound,measurement,setting,value
CC(C)CC(=O)OC[n+]1ccc(-c2c(COC(=O)NC(C)C)c(COC(=O)NC(C)C)c3n2CCC3)cc1,TGI,A498 renal,> 100 µM
same,TGI,HOP-92 NSCLC,> 100 µM
same,TGI,K-562 leukemia,> 100 µM
same,TGI,MDA-MB-435,> 100000 nM
same,TGI,HCC-2998 colon,> 100000 nM
same,TGI,OVCAR-8 ovarian,> 100000 nM
same,TGI,RPMI-8226 leukemia,> 100000 nM
same,TGI,IGROV1 ovarian,> 100000 nM
same,TGI,HS 578T breast,> 100000 nM
same,TGI,UACC-257 melanoma,> 100 µM
same,TGI,UO-31 renal,> 100 µM
same,TGI,SNB-19 CNS,> 100 µM
same,TGI,NCI-H23 lung,> 100 µM
same,TGI,UACC-62 melanoma,> 100000 nM
same,TGI,SW-620 colon,> 100000 nM
same,TGI,OVCAR-3 ovarian,> 100 µM
same,TGI,NCI-H226 lung,> 100 µM
same,TGI,HL-60(TB) leukemia,> 100 µM
same,TGI,SNB-75 CNS,> 100 µM
same,TGI,LOX IMVI melanoma,> 100000 nM
same,TGI,SK-OV-3 ovarian,> 100000 nM
same,TGI,786-0 renal,> 100 µM
same,TGI,MCF7 breast,> 100000 nM
same,TGI,TK-10 renal,> 100 µM
same,TGI,SK-MEL-28 melanoma,> 100000 nM
same,TGI,T-47D breast,> 100000 nM
same,TGI,BT-549 breast,> 100000 nM
same,TGI,HT29 colon,> 100000 nM
same,TGI,KM12 colon,> 100 µM
same,TGI,SK-MEL-2 melanoma,> 100000 nM
same,TGI,SF-268 CNS,> 100 µM
same,TGI,RXF 393 renal,> 100000 nM
same,TGI,COLO 205 colon,> 100000 nM
same,TGI,M14 melanoma,> 100 µM
same,TGI,NCI-H460 lung,> 100000 nM
same,TGI,MDA-N,> 100000 nM
same,TGI,HCT-15 colon,> 100000 nM
same,TGI,SF-539 CNS,> 100000 nM
same,TGI,OVCAR-4 ovarian,> 100000 nM
same,TGI,MDA-MB-231 breast,> 100 µM
same,TGI,HCT-116 colon,> 100 µM
same,TGI,SR leukemia,> 100000 nM
same,TGI,DU-145 prostate,> 100 µM
same,TGI,SN12C renal,> 100000 nM
same,TGI,MOLT-4 leukemia,> 100000 nM
same,TGI,OVCAR-5 ovarian,> 100 µM
same,TGI,CAKI-1 renal,> 100000 nM
same,TGI,NCI-H522 lung,> 100000 nM
same,TGI,PC-3 prostate,> 100 µM
same,TGI,ACHN renal,> 100 µM
same,TGI,NCI/ADR-RES ovarian,> 100000 nM
same,TGI,SF-295 CNS,> 100 µM
same,TGI,A549 NSCLC,> 100 µM
same,TGI,CCRF-CEM leukemia,> 100000 nM
same,TGI,EKVX NSCLC,> 100000 nM
same,TGI,HOP-62 NSCLC,> 100000 nM
same,TGI,MALME-3M melanoma,> 100 µM
same,TGI,SK-MEL-5 melanoma,> 100 µM
same,TGI,U251 CNS,> 100 µM
CC[C@@]1(O)C[C@H](OC2CC(N(C)C)C(O)C(C)O2)c2c(O)c3c(c(O)c2[C@H]1OC1CC(N(C)C)C(O)C(C)O1)C(=O)c1cccc(O)c1C3=O (stereo partly specified),GI50,A498 renal,< 10 nM
same,GI50,HOP-92 NSCLC,< 10 nM
same,GI50,K-562 leukemia,< 10 nM
same,GI50,MDA-MB-435,< 10 nM
same,TGI,MDA-MB-435,123 nM and 18.7 nM
same,GI50,HCC-2998 colon,< 10 nM
same,TGI,HCC-2998 colon,75.9 nM and 21.6 nM
same,GI50,OVCAR-8 ovarian,< 10 nM
same,TGI,OVCAR-8 ovarian,400 nM and 1100 nM
same,GI50,RPMI-8226 leukemia,< 10 nM
same,TGI,RPMI-8226 leukemia,581 nM and 91.9 nM
same,GI50,IGROV1 ovarian,< 10 nM
same,TGI,IGROV1 ovarian,2940 nM
same,GI50,HS 578T breast,< 10 nM
same,TGI,HS 578T breast,388 nM and 72.4 nM
same,GI50,UACC-257 melanoma,< 10 nM
same,GI50,UO-31 renal,< 10 nM
same,GI50,SNB-19 CNS,< 10 nM
same,TGI,SNB-19 CNS,11.1 µM
same,GI50,NCI-H23 lung,< 10 nM
same,GI50,UACC-62 melanoma,< 10 nM
same,TGI,UACC-62 melanoma,71.1 nM and < 10 nM
same,GI50,SW-620 colon,< 10 nM
same,TGI,SW-620 colon,14.9 nM
same,GI50,OVCAR-3 ovarian,< 10 nM
same,TGI,OVCAR-3 ovarian,< 0.01 µM
same,GI50,NCI-H226 lung,< 10 nM
same,GI50,HL-60(TB) leukemia,10.2 nM
same,GI50,SNB-75 CNS,< 10 nM
same,TGI,LOX IMVI melanoma,92.3 nM
same,GI50,SK-OV-3 ovarian,< 10 nM
same,TGI,SK-OV-3 ovarian,375 nM and 64.3 nM
same,GI50,786-0 renal,< 10 nM
same,GI50,MCF7 breast,< 10 nM
same,TGI,MCF7 breast,381 nM and 74.3 nM
same,GI50,TK-10 renal,< 10 nM
same,GI50,SK-MEL-28 melanoma,< 10 nM
same,TGI,SK-MEL-28 melanoma,135 nM and 40.5 nM
same,GI50,T-47D breast,< 10 nM
same,TGI,T-47D breast,37.9 nM
same,GI50,BT-549 breast,< 10 nM
same,TGI,BT-549 breast,293 nM and 102 nM
same,GI50,HT29 colon,< 10 nM
same,TGI,HT29 colon,353 nM and 109 nM
same,GI50,KM12 colon,< 10 nM
same,GI50,SK-MEL-2 melanoma,< 10 nM
same,TGI,SK-MEL-2 melanoma,56.8 nM and < 10 nM
same,GI50,SF-268 CNS,< 10 nM
same,GI50,RXF 393 renal,< 10 nM
same,TGI,RXF 393 renal,64.3 nM and < 10 nM
same,GI50,COLO 205 colon,< 10 nM
same,TGI,COLO 205 colon,149 nM and 29.7 nM
same,GI50,M14 melanoma,< 10 nM
same,GI50,NCI-H460 lung,< 10 nM
same,TGI,NCI-H460 lung,304 nM and 662 nM
same,GI50,MDA-N,< 10 nM
same,TGI,MDA-N,156 nM and 113 nM
same,GI50,HCT-15 colon,23.8 nM
same,TGI,HCT-15 colon,971 nM and 1290 nM
same,GI50,SF-539 CNS,< 10 nM
same,TGI,SF-539 CNS,212 nM and 183 nM
same,GI50,OVCAR-4 ovarian,< 10 nM
same,TGI,OVCAR-4 ovarian,601 nM and 147 nM
same,GI50,MDA-MB-231 breast,< 10 nM
same,GI50,HCT-116 colon,< 10 nM
same,GI50,SR leukemia,< 10 nM
same,TGI,SR leukemia,27.3 nM
same,GI50,DU-145 prostate,< 10 nM
same,TGI,DU-145 prostate,11.3 µM
same,GI50,SN12C renal,< 10 nM
same,TGI,SN12C renal,1040 nM
same,GI50,MOLT-4 leukemia,< 10 nM
same,TGI,MOLT-4 leukemia,57.3 nM
same,GI50,OVCAR-5 ovarian,< 10 nM
same,TGI,CAKI-1 renal,54.5 nM
same,GI50,NCI-H522 lung,< 10 nM
same,TGI,NCI-H522 lung,85.7 nM and < 10 nM
same,GI50,PC-3 prostate,< 10 nM
same,GI50,ACHN renal,30 nM and < 10 nM
same,TGI,ACHN renal,< 0.01 µM
same,GI50,NCI/ADR-RES ovarian,< 10 nM
same,TGI,NCI/ADR-RES ovarian,842 nM and 334 nM
same,GI50,SF-295 CNS,< 10 nM
same,GI50,CCRF-CEM leukemia,< 10 nM
same,TGI,CCRF-CEM leukemia,204 nM
same,GI50,EKVX NSCLC,< 10 nM
same,TGI,EKVX NSCLC,538 nM and 167 nM
same,GI50,HOP-62 NSCLC,< 10 nM
same,TGI,HOP-62 NSCLC,192 nM
same,GI50,MALME-3M melanoma,< 10 nM
same,GI50,SK-MEL-5 melanoma,< 10 nM
same,GI50,U251 CNS,< 10 nM
